How the values were obtained:
[1] = system: adult Stomoxys calcitrans; experiment: Test for insecticidal activity: topical application to adult flies, mortality at 24 hours; type: in vivo; settings: acetone solution (1 μl) applied to thorax, mortality assessed 24 hours after dosing
Method: Test for Insecticidal Activity Adult flies (Stomoxys calcitrans) are collected and anaesthetized using CO2. An acetone solution (1 μl) containing the test compound is applied directly to the thorax of each fly and then the flies are placed carefully into a 50 ml tube covered with damp gauze to recover from the CO2. Negative controls have acetone (1 μl) dispensed onto them. Mortality is assessed 24 hours after dosing. Table 1 illustrates the in vivo activity of a selection of the compounds of the invention against adult Stomoxys calcitrans. Dosages required to produce 100% mortality are given in the final column as μg/fly.

[2] = system: Boophilus microplus larvae; experiment: Test for acaricidal activity: treated filter paper envelope, larval mortality; settings: larvae in treated filter paper envelope; 25° C.; mortality assessed after 48 hours
Method: Test for Acaricidal Activity
A dose of 10 μg/cm^2 is created by evenly pipetting 0.5 ml of a 1 mg/ml solution of the test compound in a suitable solvent such as acetone or ethanol onto a Whatman No. 1 (Trade Mark) filter paper cut to a size of 8×6.25 cm. When dry, the paper is folded in half, sealed on two sides using a crimping device and placed in a Kilner jar containing a cotton wool pad dampened with water. The jar is then sealed and placed at 25° C. for 24 hours. Next, approximately 50 Boophilus microplus larvae are introduced into the treated paper envelope which is then crimped along the third side to effect a complete seal. The paper envelope is returned to the Kilner jar, which is sealed and placed at 25° C. for a further 48 hours. The papers are then removed and mortality assessed. Negative controls are provided by treating an appropriately cut filter paper with 0.5 ml of solvent only and following the same procedure. Activity at other doses is obtained by varying the concentration of the test solution.
Table 2 illustrates the in vitro activity of a selection of the compounds of the invention against Boophilus microplus larvae. Dosages required to produce 100% mortality are given in the final column as μg/cm^2.

Row | SMILES | melting point | Dosage required to produce 100% mortality [1] | Dosage required to produce 100% mortality [2]
1 | C=C(C)c1nn(-c2c(Cl)cc(C(F)(F)F)cc2Cl)cc1C1CC1(Br)Br (stereo not shown) [Example 1, 4-(2,2-Dibromocyclopropyl)-1-(2,6-dichloro-4-trifluoromethylphenyl)-3-(propen-2-yl)pyrazole] | 86.5 to 88.2 °C | – | –
2 | C=Cc1nn(-c2c(Cl)cc(C(F)(F)F)cc2Cl)cc1C1CC1(Br)Br (stereo not shown) [Example 4, 4-(2,2-Dibromocyclopropyl)-1-(2,6-dichloro-4-trifluoromethylphenyl)-3-ethenylpyrazole] | – | 0.10 μG/FLY | –
3 | FC(F)=Cc1nn(-c2c(Cl)cc(C(F)(F)F)cc2Cl)cc1C1CC1(Br)Br (stereo not shown) [Example 5, 4-(2,2-Dibromocyclopropyl)-1-(2,6-dichloro-4-trifluoromethylphenyl)-3-(2,2-difluoroethenyl)pyrazole] | – | 0.10 μG/FLY | –
4 | FC(F)(F)c1cc(Cl)c(-n2cc(C3CC3(Br)Br)c(C=C(Br)Br)n2)c(Cl)c1 (stereo not shown) [Example 6, 4-(2,2-Dibromocyclopropyl)-3-(2,2-dibromoethenyl)-1-(2,6-dichloro-4-trifluoromethylphenyl)pyrazole] | 106 to 107 °C | – | –
5 | NC(=O)c1nn(-c2c(Cl)cc(C(F)(F)F)cc2Cl)cc1C1CC1(Br)Br (stereo not shown) [Example 7, 3-Carbamoyl-4-(2,2-dibromocyclopropyl)-1-(2,6-dichloro-4-trifluoromethylphenyl)pyrazole] | 186.2 to 187.3 °C | – | –
6 | Nc1nn(-c2c(Cl)cc(C(F)(F)F)cc2Cl)cc1C1CC1(Br)Br (stereo not shown) [Example 8, 3-Amino-4-(2,2-dibromocyclopropyl)-1-(2,6-dichloro-4-trifluoromethylphenyl)pyrazole] | 124.9 to 126 °C | – | –
7 | FC(F)(F)c1cc(Cl)c(-n2cc(C3CC3(Br)Br)cn2)c(Cl)c1 (stereo not shown) [Example 9, 4-(2,2-Dibromocyclopropyl)-1-(2,6-dichloro-4-trifluoromethylphenyl)pyrazole] | – | 0.05 μG/FLY | –
8 | FC(F)(F)c1cc(Cl)c(-n2cc(C3CC3(Br)Br)c(Cl)n2)c(Cl)c1 (stereo not shown) [Example 10, 3-Chloro-4-(2,2-dibromocyclopropyl)-1-(2,6-dichloro-4-trifluoromethylphenyl)pyrazole] | – | – | 1.00 μg/cm^2
9 | FC(F)(F)c1cc(Cl)c(-n2cc(C3CC3(Br)Br)c(Br)n2)c(Cl)c1 (stereo not shown) [Example 11, 3-Bromo4-(2,2-dibromocyclopropyl)-1-(2,6-dichloro-4-trifluoromethylphenyl)pyrazole] | – | 0.05 μG/FLY | 1.00 μg/cm^2
